Assay: Lipophilicity, log D of the compound
Type: physicochemical
Details: octanol/water

Row | SMILES | logD
1 | O=C(NCC1CC1)c1cncc(N2CCCN(Cc3ccccc3)CC2)n1 | 3
2 | CCCCN(C)c1cncc(C(=O)NC2CCCCCC2)n1 | 3.8
3 | CCN(C)c1cncc(C(=O)NC2Cc3ccccc3C2)n1 | 3.6
4 | C[C@H]1CC[C@H](NC(=O)c2cnc(N3CCCCC3)cn2)CC1 | 4.4
5 | CN(CCO)c1cncc(C(=O)NCC(C)(C)c2ccccc2)n1 | 2.7
6 | CC(C)(CNC(=O)c1cnc(N2CCC(CO)CC2)cn1)c1ccccc1 | 3.5
7 | CC(C)(CNC(=O)c1cncc(N2CCCCC2)n1)c1ccccc1 | 4.4
8 | O=C(NC1CCCCCC1)c1cnc(N2CCCCC2)cn1 | 3.9
9 | CC(C)(CNC(=O)c1cnc(N2CCCCC2)cn1)c1ccccc1 | 4.5
10 | O=C(NCC1CC1)c1cncc(NCCc2cccc(O)c2)n1 | 3.2
11 | C[C@H]1CC[C@H](NC(=O)c2cnc(N3CCC(CO)CC3)cn2)CC1 | 3.3

Continued, values first:

Row | logD | SMILES
12 | 2 | CC(CN(C)C)N(C)c1cnc(C(=O)NCC(C)(C)c2ccccc2)cn1 (stereo not drawn)
13 | 4 | CC(C)(CNC(=O)c1cnc2ccccc2n1)c1ccccc1
14 | 2.6 | CC(C)(CNC(=O)c1cncc(-c2ccccc2)n1)c1ccccc1
15 | 3.4 | CC(C)(CNC(=O)c1cnc(-c2ccccc2)cn1)c1ccccc1
16 | 3.6 | CC(C)(CNC(=O)c1cncc(N[C@@H](CO)c2ccccc2)n1)c1ccccc1
17 | 2.9 | CN(CCC#N)c1cnc(C(=O)NCC(C)(C)c2ccccc2)cn1

Assay: Permeability in artificial membrane assessed as diffusion rate by PAMPA assay
Type: ADME
Details: read-out: permeability

Row | Papp | SMILES
18 | 25.5 ×10⁻⁶ cm/s | C[C@H]1CC[C@H](NC(=O)c2cnc(N3CCC(CO)CC3)cn2)CC1

— ChEMBL document CHEMBL1138393, “Structure-activity relationships of novel non-competitive mGluR1 antagonists: a potential treatment for chronic pain” (Bioorg Med Chem Lett, 2007)
